From ChEMBL document CHEMBL3885881, “DrugMatrix”

Organism: Rattus norvegicus
Experiment: DrugMatrix - Regimen: Daily Repeat
Type: toxicity, organism-based, Sprague-Dawley
Parameters: regimen Daily Repeat, gender Male, age 6-8 weeks
Settings: in vivo, po, route oral GAVAGE, […]; for ABSOLUTE BASOPHIL / ABSOLUTE EOSINOPHIL / ABSOLUTE LYMPHOCYTE / ABSOLUTE MONOCYTE / ABSOLUTE SEGMENTED NEUTROPHIL / BASOPHIL / EOSINOPHIL / ERYTHROCYTE COUNT / HEMATOCRIT / HEMOGLOBIN / LEUKOCYTE COUNT / LYMPHOCYTE / MEAN CORPUSCULAR HEMOGLOBIN / MEAN CORPUSCULAR HEMOGLOBIN CONCENTRATION / MEAN CORPUSCULAR VOLUME / MONOCYTE / NEUTROPHIL / NUCLEATED RED BLOOD CELLS / PLATELET COUNT: tissue Blood; for ALANINE AMINOTRANSFERASE / ALBUMIN / ALKALINE PHOSPHATASE / ASPARTATE AMINOTRANSFERASE / BLOOD UREA NITROGEN / CARBON DIOXIDE / CHLORIDE / CHOLESTEROL / CREATINE PHOSPHOKINASE / CREATININE / GLUCOSE / LACTATE DEHYDROGENASE / LIPASE / PHOSPHORUS / POTASSIUM / SODIUM / TOTAL BILIRUBIN / TOTAL PROTEIN / URIC ACID: tissue Plasma
[1] = 52 mg/kg, 72 h, dose level High, time 3 day
[2] = 52 mg/kg, 120 h, dose level High, time 5 day
[3] = 72 h, dose 5.2 mg/Kg, dose level Low, time 3 day
[4] = 120 h, dose 5.2 mg/Kg, dose level Low, time 5 day

With `CC(C(=O)O)c1cccc(Oc2ccccc2)c1` (configuration not stated) [FENOPROFEN] the “ABSOLUTE BASOPHIL” value [1] was 0 CELLS/uL, the “ABSOLUTE EOSINOPHIL” value [1] was 0 CELLS/uL and the “ABSOLUTE LYMPHOCYTE” value [1] was 16297.67 CELLS/uL. The “ABSOLUTE MONOCYTE” value [1] was 471.33 CELLS/uL, the “ABSOLUTE SEGMENTED NEUTROPHIL” value [1] was 2164.33 CELLS/uL and the BASOPHIL [1] was 0%. The EOSINOPHIL [1] was 0%, the “ERYTHROCYTE COUNT” value [1] was 5.47 x10E6/uL and the HEMATOCRIT [1] was 33.6%. For the same molecule, the HEMOGLOBIN [1] was 13.27 G/DL, the “LEUKOCYTE COUNT” value [1] was 18.93 x10E3/uL and the LYMPHOCYTE [1] was 87.33%. For the same molecule, the “MEAN CORPUSCULAR HEMOGLOBIN” value [1] was 24.23 pg, the “MEAN CORPUSCULAR HEMOGLOBIN CONCENTRATION” value [1] was 39.5 G/DL and the “MEAN CORPUSCULAR VOLUME” value [1] was 61.37 fL. For the same molecule, the MONOCYTE [1] was 2.33%, the NEUTROPHIL [1] was 10.33% and the “NUCLEATED RED BLOOD CELLS” value [1] was 0 /100WBC. The “PLATELET COUNT” value [1] was 1245.33 x10E3/uL, the “ALANINE AMINOTRANSFERASE” value [1] was 68.33 u/L and the ALBUMIN [1] was 3.93 G/DL. The “ALKALINE PHOSPHATASE” value [1] was 437.33 u/L, the “ASPARTATE AMINOTRANSFERASE” value [1] was 102 u/L and the “BLOOD UREA NITROGEN” value [1] was 14.67 mg/dL. For the same molecule, the “CARBON DIOXIDE” value [1] was 28.67 mmol/L, the CHLORIDE [1] was 102.33 MEQ/L and the CHOLESTEROL [1] was 63.33 mg/dL. The “CREATINE PHOSPHOKINASE” value [1] was 360.67 u/L, the CREATININE [1] was 0.15 mg/dL and the GLUCOSE [1] was 149.67 mg/dL. The “LACTATE DEHYDROGENASE” value [1] was 593 u/L, the LIPASE [1] was 12 u/L and the PHOSPHORUS [1] was 11.6 mg/dL. For the same molecule, the POTASSIUM [1] was 7.04 MEQ/L, the SODIUM [1] was 141.5 MEQ/L and the “TOTAL BILIRUBIN” value [1] was 0.17 mg/dL. For the same molecule, the “TOTAL PROTEIN” value [1] was 5.37 G/DL, the “URIC ACID” value [1] was 1.53 mg/dL and the “ABSOLUTE BASOPHIL” value [2] was 0 CELLS/uL. For the same molecule, the “ABSOLUTE EOSINOPHIL” value [2] was 54 CELLS/uL, the “ABSOLUTE LYMPHOCYTE” value [2] was 12815.33 CELLS/uL and the “ABSOLUTE MONOCYTE” value [2] was 148.67 CELLS/uL. For the same molecule, the “ABSOLUTE SEGMENTED NEUTROPHIL” value [2] was 1848.67 CELLS/uL, the BASOPHIL [2] was 0% and the EOSINOPHIL [2] was 0.33%. For the same molecule, the “ERYTHROCYTE COUNT” value [2] was 5.11 x10E6/uL, the HEMATOCRIT [2] was 33% and the HEMOGLOBIN [2] was 13.3 G/DL. The “LEUKOCYTE COUNT” value [2] was 14.87 x10E3/uL, the LYMPHOCYTE [2] was 85.67% and the “MEAN CORPUSCULAR HEMOGLOBIN” value [2] was 26 pg. The “MEAN CORPUSCULAR HEMOGLOBIN CONCENTRATION” value [2] was 40.3 G/DL, the “MEAN CORPUSCULAR VOLUME” value [2] was 64.53 fL and the MONOCYTE [2] was 1%. For the same molecule, the NEUTROPHIL [2] was 13%, the “NUCLEATED RED BLOOD CELLS” value [2] was 0.33 /100WBC and the “PLATELET COUNT” value [2] was 1200 x10E3/uL. For the same molecule, the “ALANINE AMINOTRANSFERASE” value [2] was 64.67 u/L, the ALBUMIN [2] was 4.13 G/DL and the “ALKALINE PHOSPHATASE” value [2] was 380.33 u/L. The “ASPARTATE AMINOTRANSFERASE” value [2] was 93.33 u/L, the “BLOOD UREA NITROGEN” value [2] was 13.33 mg/dL and the “CARBON DIOXIDE” value [2] was 23 mmol/L. For the same molecule, the CHLORIDE [2] was 100.67 MEQ/L, the CHOLESTEROL [2] was 57.33 mg/dL and the “CREATINE PHOSPHOKINASE” value [2] was 263.67 u/L. For the same molecule, the CREATININE [2] was 0.17 mg/dL, the GLUCOSE [2] was 175 mg/dL and the “LACTATE DEHYDROGENASE” value [2] was 284 u/L. For the same molecule, the LIPASE [2] was 10.67 u/L, the PHOSPHORUS [2] was 12 mg/dL and the POTASSIUM [2] was 6.69 MEQ/L. The SODIUM [2] was 141.5 MEQ/L, the “TOTAL BILIRUBIN” value [2] was 0.2 mg/dL and the “TOTAL PROTEIN” value [2] was 5.3 G/DL. For the same molecule, the “URIC ACID” value [2] was 1.77 mg/dL, the “ABSOLUTE BASOPHIL” value [3] was 0 CELLS/uL and the “ABSOLUTE EOSINOPHIL” value [3] was 60.67 CELLS/uL. For the same molecule, the “ABSOLUTE LYMPHOCYTE” value [3] was 12618.67 CELLS/uL, the “ABSOLUTE MONOCYTE” value [3] was 219.33 CELLS/uL and the “ABSOLUTE SEGMENTED NEUTROPHIL” value [3] was 2034.67 CELLS/uL. For the same molecule, the BASOPHIL [3] was 0%, the EOSINOPHIL [3] was 0.33% and the “ERYTHROCYTE COUNT” value [3] was 5.49 x10E6/uL. For the same molecule, the HEMATOCRIT [3] was 35%, the HEMOGLOBIN [3] was 14.13 G/DL and the “LEUKOCYTE COUNT” value [3] was 14.93 x10E3/uL. For the same molecule, the LYMPHOCYTE [3] was 84%, the “MEAN CORPUSCULAR HEMOGLOBIN” value [3] was 25.83 pg and the “MEAN CORPUSCULAR HEMOGLOBIN CONCENTRATION” value [3] was 40.37 G/DL. The “MEAN CORPUSCULAR VOLUME” value [3] was 63.93 fL, the MONOCYTE [3] was 1.67% and the NEUTROPHIL [3] was 14%. The “NUCLEATED RED BLOOD CELLS” value [3] was 0 /100WBC, the “PLATELET COUNT” value [3] was 1213.67 x10E3/uL and the “ALANINE AMINOTRANSFERASE” value [3] was 79.67 u/L. The ALBUMIN [3] was 3.83 G/DL, the “ALKALINE PHOSPHATASE” value [3] was 345 u/L and the “ASPARTATE AMINOTRANSFERASE” value [3] was 100.33 u/L. For the same molecule, the “BLOOD UREA NITROGEN” value [3] was 10.67 mg/dL, the “CARBON DIOXIDE” value [3] was 29 mmol/L and the CHLORIDE [3] was 101 MEQ/L. The CHOLESTEROL [3] was 66 mg/dL, the “CREATINE PHOSPHOKINASE” value [3] was 384 u/L and the CREATININE [3] was 0.14 mg/dL. For the same molecule, the GLUCOSE [3] was 162.33 mg/dL, the “LACTATE DEHYDROGENASE” value [3] was 245 u/L and the LIPASE [3] was 12.33 u/L. The PHOSPHORUS [3] was 11.73 mg/dL, the POTASSIUM [3] was 6.15 MEQ/L and the SODIUM [3] was 143.37 MEQ/L. The “TOTAL BILIRUBIN” value [3] was 0.17 mg/dL, the “TOTAL PROTEIN” value [3] was 5.43 G/DL and the “URIC ACID” value [3] was 1.5 mg/dL. For the same molecule, the “ABSOLUTE BASOPHIL” value [4] was 0 CELLS/uL, the “ABSOLUTE EOSINOPHIL” value [4] was 43 CELLS/uL and the “ABSOLUTE LYMPHOCYTE” value [4] was 9244.67 CELLS/uL. The “ABSOLUTE MONOCYTE” value [4] was 125.67 CELLS/uL, the “ABSOLUTE SEGMENTED NEUTROPHIL” value [4] was 820 CELLS/uL and the BASOPHIL [4] was 0%. For the same molecule, the EOSINOPHIL [4] was 0.33%, the “ERYTHROCYTE COUNT” value [4] was 5.69 x10E6/uL and the HEMATOCRIT [4] was 34.97%. For the same molecule, the HEMOGLOBIN [4] was 13.73 G/DL, the “LEUKOCYTE COUNT” value [4] was 10.23 x10E3/uL and the LYMPHOCYTE [4] was 90.33%. The “MEAN CORPUSCULAR HEMOGLOBIN” value [4] was 24.13 pg, the “MEAN CORPUSCULAR HEMOGLOBIN CONCENTRATION” value [4] was 39.3 G/DL and the “MEAN CORPUSCULAR VOLUME” value [4] was 61.43 fL. For the same molecule, the MONOCYTE [4] was 1.33%, the NEUTROPHIL [4] was 8% and the “NUCLEATED RED BLOOD CELLS” value [4] was 0 /100WBC. For the same molecule, the “PLATELET COUNT” value [4] was 1094 x10E3/uL, the “ALANINE AMINOTRANSFERASE” value [4] was 64 u/L and the ALBUMIN [4] was 4.07 G/DL. For the same molecule, the “ALKALINE PHOSPHATASE” value [4] was 422.67 u/L, the “ASPARTATE AMINOTRANSFERASE” value [4] was 91.67 u/L and the “BLOOD UREA NITROGEN” value [4] was 12 mg/dL. For the same molecule, the “CARBON DIOXIDE” value [4] was 28 mmol/L, the CHLORIDE [4] was 102.33 MEQ/L and the CHOLESTEROL [4] was 57.33 mg/dL. The “CREATINE PHOSPHOKINASE” value [4] was 306.67 u/L, the CREATININE [4] was 0.15 mg/dL and the GLUCOSE [4] was 153 mg/dL. For the same molecule, the “LACTATE DEHYDROGENASE” value [4] was 198.33 u/L, the LIPASE [4] was 11.67 u/L and the PHOSPHORUS [4] was 10.13 mg/dL. The POTASSIUM [4] was 6.12 MEQ/L, the SODIUM [4] was 142.33 MEQ/L and the “TOTAL BILIRUBIN” value [4] was 0.13 mg/dL. For the same molecule, the “TOTAL PROTEIN” value [4] was 5.53 G/DL and the “URIC ACID” value [4] was 1.17 mg/dL.
